Assay results reported in US20230340149A1, “METHODS OF TREATMENT OF INFLAMMATORY BOWEL DISEASES” (INSERM (INSTITUT NATIONAL DE LA SANTÉ ET DE LA RECHERCHE …, priority 2020, published 2023).
Read-outs that look alike come from different tables or passages of the source.

How the values were obtained:
[1] = cited from earlier work
[2] = in vivo, cited from earlier work
[3] = test system: cytochrome P450 enzymes; settings: cited from earlier work
[4] = test system: mouse colon; assay: Daily intracolonic administration of thrombin in mice, inflammation parameters; format: in vivo
Protocol: Thrombin (specific activity 2000 NIH units/mg protein, T6884, Sigma) was administered daily for 10-days intracolonically daily (5 U/mouse in 50 μl in saline, 0.9% NaCl) under light anaesthesia (3% isoflurane) in PAR-1^−/−, PAR4^−/−, littermates and in mice purchased from Janvier laboratories. Controls received heat-inactivated thrombin (same dose, 10 minutes at 100° C.) or saline alone. After intracolonic instillation, mice were kept upside-down for 2-min to allow colonic diffusion of the administered solution. After 10-days, mice were sacrificed by cervical dislocation and inflammation parameters were measured.
TNBS colitis was induced in fasted rats as previously described^20,21. Animals were housed in ventilated cages, acclimatized for one week before experiment started and beddings were mixed twice. Briefly, TNBS was prepared at a final concentration of 120 mg/ml in 50% ethanol in saline and was kept in the dark before use. A catheter was inserted at 8 cm from the anus and 30 mg of the TNBS solution was instilled through the catheter into the lumen in a final volume of 250 μl/rat. For TNBS colitis induction in mice, fasted animals were lightly anesthetized with halothane. A polyethylene catheter was inserted intracolonically 4 cm from the anus and TNBS (2 mg/mouse in 100 μl) dissolved in a solution of saline plus 40% ethanol was pushed into the catheter. At time of the sacrifice, colonic tissues were harvested. Before opening the colon, luminal washes with a PBS solution were performed in order to measure thrombin activity in those washes. Colons were then cut opened. Macroscopic damage scores were evaluated as previously described^9, by a skilled observer unaware of the treatments. When observed, the following parameters were given score of 1: hemorrhage, edema, stricture, ulceration, fecal blood, mucus, and diarrhea. Erythema was scored a maximum of 2 depending on the length of the area being affected (0, absent; 1, less than 1 cm; and 2, more than 1 cm). Adhesion was scored based on its severity (0, absent; 1, moderate; and 2, severe). Colon thickness was measured using an electronic caliper (Mitutoyo, Mississauga, Canada, resolution 0.01 mm). MPO activity was measured as an index of granulocyte infiltration as previously described. Tissue samples were homogenized in a solution of 0.5% hexadecyltrimethylammonium bromide dissolved in phosphate buffer solution (pH 6.0) for 1 min. Homogenized tissues were centrifuged at 13 000 g for 2 min. Supernatants were added to a buffer supplemented with 1% hydrogen peroxide, and O-dianisidine dihydrochloride solution. Optical density readings were taken for 1 min at 30 s intervals at 450 nm^22. Results were normalized to total protein content and expressed as OD450 nm/min/μg/ml. For bacterial translocation assays, mesenteric lymph nodes were collected aseptically, weighed and homogenized before being plated at 37° C. in Columbia blood agar (BD Biosciences) for 24 h for aerobes, and for 48 h for anaerobes left in anaerobic jars^9. For permeability assays, mice received orally 4-kDa FITC Dextran (Sigma Aldrich) at the dose of 600 mg/kg body weight in PBS, and blood was collected 1-h after. Fluorescence for FITC-Dextran presence in serum was measured by spectrophotometry (excitation 485 nm, emission 528 nm)^23. Apoptosis was measured by TUNEL (terminal deoxynucleotidyl transferase dUTP nick end labeling) staining in mouse colonic tissues as previously described^24,25. Five random fields were captured per tissue section and percent of apoptotic cells was determined by an observer unaware of the treatments.

[5] = test system: human mucosa-associated microbiota biofilms; assay: Adhesion of bacteria dispersed from thrombin-exposed human mucosal biofilms to Caco2 monolayers; format: cell-based; settings: biofilms exposed to 1 U/ml
Protocol: Methods for FIG. 7. Panel A: Mucosa-associated microbiota was extracted from 4 healthy human colon biopsies (collected in Toulouse Hospital under ethic approval CODECOH Colic-DC2015-2443), under anaerobic condition, and were seeded into the Calgary Biofilm Device (Innovotech, Canada) to develop a multispecies biofilm. After 48 hours of incubation (37° C., anaerobic environment), biofilms were exposed to various concentrations of human thrombin (0, 10, 100 and 1000 milliunit/ml). After 24 hours, dispersed bacteria from thrombin-treated biofilms were collected and apically exposed to human epithelial monolayers on 12-wells plates (Caco2, ATCC HB37). Bacterial adhesion to epithelial surface was assessed. Briefly, after 90 minutes of co-culture, cells were vigorously washed in PBS, and lyzed in Triton X100 0.1% for 10 minutes, after which live cell bacteria were counted on Columbia blood agar (CFU were counted after 24 hours incubation of plates at 37° C.). Data represent fold change CFU/ml count compared to untreated controls (=1). ANOVA with Fisher's LSD test, *P<0.05, ***P<0.001.

[6] = test system: adherent-invasive Escherichia coli (strain LF82) biofilms; assay: Adhesion and invasion of bacteria from thrombin-exposed E. coli LF82 biofilms on Caco2 monolayers; format: cell-based
Protocol: Panel B) Biofilms of adherent-invasive Escherichia coli (strain LF82) were formed into the Calgary Biofilm Device (Innovotech, Canada). After 48 hours of incubation (37° C., anaerobic environment), biofilms were exposed to various concentrations of human thrombin (0, 10, 100 to 1000 milliunit/ml). After 24 hours, dispersed bacteria from thrombin-treated biofilms were collected and apically exposed to human epithelial monolayers on 12-wells plates (Caco2, ATCC HB37). Bacterial adhesion to epithelial surface was assessed. Briefly, after 90 minutes of co-culture, cells were vigorously washed in PBS, and lyzed in Triton X100 0.1% for 10 minutes, after which live cell bacteria were counted on Columbia blood agar (CFU were counted after 24 hours incubation of plates at 37° C.). Data represent fold change CFU/ml count compared to untreated controls (=1). ANOVA with Fisher's LSD test, *P<0.05
Panel C) Mucosa-associated microbiota was extracted from 3 healthy human colon biopsies (collected in Toulouse Hospital under ethic approval CODECOH Colic-DC2015-2443), under anaerobic condition, and were seeded into the Calgary Biofilm Device (Innovotech, Canada) to develop a multispecies biofilm. After 48 hours of incubation (37° C., anaerobic environment), biofilms were exposed to human thrombin (0 and 100 milliunit/ml). […] Bacterial invasion into epithelial cells was assessed. […]

[7] = test system: IBD patients; settings: in vivo; cited from earlier work
[8] = test system: thrombin activity in human colonic tissues from CD patients; assay: In situ zymography of thrombin activity on frozen colonic tissue sections; format: biochemical; settings: CD patient colonic cryo-sections, 10 μM, data not shown
[9] = test system: TNBS-induced colitis in rats; assay: TNBS-induced colitis in rats, daily intracolonic treatment; format: in vivo, rat; settings: vs vehicle
[10] = highly basic guanidine; cited from earlier work
[11] = 50 μl of 100 U/ml per mouse daily for 10 days, vs vehicle (saline)
[12] = HAT 1, 2, 3 studies, HIT, versus historical controls

CCCCCCOC(=O)NC(=N)c1ccc(NCc2nc3cc(C(=O)N(CCC(=O)OCC)c4ccccn4)ccc3n2C)cc1 [dabigatran etexilate]
hepatic toxicity ([1]; long-term treatment): has not been linked with hepatic toxicity
eliminated by the kidneys [2]: > 80%
plasma half-life [2]: approximately 12 hours
interaction with cytochrome P450 enzymes [3]: lacks interaction

thrombin
translocation of aerobic bacteria into mesenteric lymph nodes ([4]; 50 μl of 100 U/ml per mouse daily for 10 days): caused the translocation
colon thickness [4, 11]: significant increase
macroscopic damage [4, 11]: caused macroscopic damage
damage score, wall thickness and MPO activity ([4]; PAR4-deficient mice): significantly reduced
macroscopic damage, colonic wall thickness and MPO activity ([4]; PAR-1-deficient mice): still exhibited significant
translocation of anaerobic bacteria ([4]; vs vehicle or boiled thrombin): not significantly different
potential to adhere to human intestinal epithelium monolayers [5]: increased
adhesion to human intestinal epithelium monolayers ([6]; biofilms exposed to 0.01 U/ml): adhered significantly more
ability to invade human intestinal epithelium monolayers ([6]; biofilms exposed to 0.1 U/ml): significantly increased

desirudin
bleeding rates versus heparin ([1]; in vivo): similar
rate of proximal deep vein thrombosis ([1]; in vivo): reduced
prevention of VTE ([1]; versus enoxaparin or unfractionated heparin): superior

heparin
benefit of treatment in IBD patients [7]: some benefits

[H]/N=C(/N)c1ccc(NCc2nc3cc(C(=O)N(CCC(=O)O)c4ccccn4)ccc3n2C)cc1 [Dabigatran]
oral availability / oral activity [2]: not orally active
thrombin activity detected in tissue (VPR-AMC substrate) [8]: inhibited
MPO activity ([9]; 100 μl 5 μM): reducing significantly
colon thickness ([9]; 100 μl 5 μM): reducing significantly
macroscopic damage score ([9]; 100 μl 5 μM): reducing significantly
weight loss ([9]; 100 μl 5 μM): reducing significantly
blood in the feces (fecal bleeding score) [9]: reduced significantly

CC1CNc2c(cccc2S(=O)(=O)N[C@@H](CCCNC(=N)N)C(=O)N2CC[C@@H](C)C[C@@H]2C(=O)O)C1 (some centres unmarked) [Argatroban]
pKa [10]: 13
plasma half-life [2]: approximately 45 minutes

CCOC(=O)CN[C@@H](C(=O)N1CC[C@H]1C(=O)NCc1ccc(/C(N)=N\O)cc1)C1CCCCC1 [Ximelagatran]
hepatic toxicity ([1]; treatment for over 35 days): linked with the risk of hepatic toxicity

N=C(N)c1ccc(CNC(=O)[C@@H]2CCN2C(=O)[C@H](NCC(=O)O)C2CCCCC2)cc1 [melagatran]
oral availability / oral activity [2]: poorly orally available

hirudin
incidence of bleeding compared with heparin ([1]; meta-analysis of 11 randomized trials, acute coronary syndrome): significantly higher incidence of bleeding
distributed in the extravascular compartment [2]: 80%
found in the plasma [2]: 20%

lepirudin
risk for major bleeding [1, 12]: increased
risk of new thrombosis [1, 12]: decreased

bivalirudin
rate of bleeding compared to heparin ([1]; acute coronary syndrome): lower rate of bleeding
excreted by the kidneys [2]: about 20%
